Conditions: room temperature

With risperidone tartrate the solubility (aqueous media) was “about 80 mg/ml” and the “solubility relative to risperidone hydrochloride” value was “about 4 times”.

Reference: patent publication USRE39181E1, “Aqueous risperidone formulations” (priority 1994, dated 2006)
